Measurements published in PMC2391127, “Modulation of erlotinib pharmacokinetics in mice by a novel cytochrome P450 3A4 inhibitor, BAS 100” (British Journal of Cancer, 2008).
Where two headings read alike, the source gives them in different places.

How the values were obtained:
[1] = Plasma pharmacokinetics of erlotinib, OSI-420 and BAS 100 after oral dosing in BALB/c mice; assay type: in vivo; settings: for Tmax / AUC(0-t) / Cmax / half-life: mouse, po; for AUC(0-t) / Cmax / half-life: BALB/c; for half-life: read-out: HL λz (terminal half-life) (converted)
Procedure: (§1) BAS 100 was obtained from Bioavailabilty Systems (Cocoa Beach, FL, USA), and erlotinib and OSI-420 were obtained from Toronto Research Chemicals (North York, ON, Canada). All other chemicals and reagents were purchased from Sigma-Aldrich (St Louis, MO, USA). Female BALB/c mice (6–8 weeks old) were kept in a controlled environment, with food and water available ad libitum. All procedures were carried out with NCI Animal Care and Use Committee approval. In the first study, BAS 100 and erlotinib were formulated in 10% DMSO and 5% polysorbate 80 in saline. Mice were randomised to receive erlotinib (10 mg kg^−1, p.o.) alone or 30 min after BAS 100 (10 mg kg^−1, p.o.). Blood was collected by cardiac puncture from three mice per time point at 0.083, 0.25, 0.5, 1, 2, 4, 6 and 24 h following erlotinib administration, and centrifuged to obtain plasma. In the second study, erlotinib was formulated in 0.3% carboxymethylcellulose and 0.1% polysorbate 80 in saline. Female CYP3A4 transgenic mice ([Granvil et al, 2003]) and wild-type FVB/NCr mice (14 weeks old) received erlotinib (10 mg kg^−1, p.o.) alone or 30 min after BAS 100 (25 mg kg^−1, p.o.). Blood was collected 2 h after erlotinib administration. All samples were stored at −80°C until analysis. Plasma concentrations of erlotinib and OSI-420 were measured as described previously ([Zhao et al, 2003]). Plasma concentrations of BAS 100 were measured by a novel liquid chromatography-tandem mass spectrometry method. Briefly, plasma samples were prepared by protein precipitation with acetonitrile. BAS 100 and the internal standard (temazepam) were resolved isocratically on a Waters XTerra MS C18 column (50 × 2.1 mm internal diameter; 3.5 μm particle size). The mass spectrometer was equipped with an electrospray ionisation source and operated in positive mode. Detection was performed by multiple reaction monitoring. The lower limit of quantitation was 10 ng ml^−1. Pharmacokinetic parameters were determined by noncompartmental analysis using WinNonlin Professional Version 5.2 (Pharsight Corporation, Mountain View, CA, USA). Bailer's method ([Bailer, 1988]) was used to estimate the variance of the area under the curve (AUC). A Z-test was used for the pairwise comparison of AUCs ([Yuan, 1993]).

[2] = 2-h plasma concentration of erlotinib in CYP3A4 transgenic mice; settings: female, mouse, in vivo, po, 10 mg kg^-1
Procedure: BAS 100 was obtained from Bioavailabilty Systems (Cocoa Beach, FL, USA), and erlotinib and OSI-420 were obtained from Toronto Research Chemicals (North York, ON, Canada). All other chemicals and reagents were purchased from Sigma-Aldrich (St Louis, MO, USA). Female BALB/c mice (6–8 weeks old) were kept in a controlled environment, with food and water available ad libitum. All procedures were carried out with NCI Animal Care and Use Committee approval. In the first study, BAS 100 and erlotinib were formulated in 10% DMSO and 5% polysorbate 80 in saline. Mice were randomised to receive erlotinib (10 mg kg^−1, p.o.) alone or 30 min after BAS 100 (10 mg kg^−1, p.o.). Blood was collected by cardiac puncture from three mice per time point at 0.083, 0.25, 0.5, 1, 2, 4, 6 and 24 h following erlotinib administration, and centrifuged to obtain plasma. In the second study, erlotinib was formulated in 0.3% carboxymethylcellulose and 0.1% polysorbate 80 in saline. […] Plasma concentrations of erlotinib and OSI-420 were measured as described previously ([Zhao et al, 2003]). Plasma concentrations of BAS 100 were measured by a novel liquid chromatography-tandem mass spectrometry method. […] The lower limit of quantitation was 10 ng ml^−1. Pharmacokinetic parameters were determined by noncompartmental analysis using WinNonlin Professional Version 5.2 (Pharsight Corporation, Mountain View, CA, USA). […]

[3] = ref Hidalgo et al, 2001, cited from earlier work
[4] = 2-h plasma concentration of erlotinib in wild-type FVB/NCr mice; assay type: in vivo; settings: for concentration at 2 h: female, FVB/NCr, mouse, plasma, po
Procedure: as §1, with “Bailer's method ([Bailer, 1988]) was used to estimate the variance of the area under the curve (AUC). A Z-test was used for the pairwise comparison of AUCs ([Yuan, 1993]).” left out

[5] = female, plasma, 10 mg/kg, plasma, erlotinib 10 mg kg^-1 p.o. 30 min after BAS 100 10 mg kg^-1 p.o., BALB/c mice
[6] = female, plasma, 10 mg/kg, erlotinib 10 mg kg^-1 p.o. alone (-BAS 100), BALB/c mice

SMILES: C#Cc1cccc(Nc2ncnc3cc(OCCOC)c(OCCO)cc23)c1 [OSI-420]
- Tmax ([1]; in vivo, 10 mg/kg): 2.0 h

SMILES: C#Cc1cccc(Nc2ncnc3cc(OCCOC)c(OCCOC)cc23)c1 [Erlotinib]
- concentration at 2 h [2]: 929 ± 80 ng/mL
- relative extent of metabolism of erlotinib into OSI-420 ([3]; cancer patients): 0.12
- interindividual pharmacokinetic variability ([3]; patients, Tan et al, 2004): up to eight-fold
- fold increase in 2-h plasma concentration of erlotinib by BAS 100 ([4]; BAS 100 25 mg kg^-1 p.o.): 1.9 fold
- concentration at 2 h ([4]; erlotinib 10 mg kg^-1 p.o. 30 min after BAS 100 25 mg kg^-1 p.o.): 1410 ± 237 ng/mL
- concentration at 2 h ([4]; erlotinib 10 mg kg^-1 p.o. alone): 744 ± 135 ng/mL
- erlotinib exposure after 2.5-fold increase in the dose of BAS 100 ([1]; BAS 100 25 mg kg^-1 vs 10 mg kg^-1, data not shown): did not result in a further increase in erlotinib exposure
- fold increase in the AUC of erlotinib by BAS 100 ([1]; erlotinib 10 mg kg^-1 p.o. after BAS 100 10 mg kg^-1 p.o. vs alone, P<0.05): 2.1 fold
- AUC(0-t) [1, 5]: 38000 ng·h/mL
- Cmax [1, 5]: 3950 ng/mL
- half-life [1, 5]: 3.2 h
- half-life ([1]; female, plasma, 10 mg/kg, plasma, erlotinib 10 mg kg^-1 p.o. alone (-BAS 100), BALB/c mice): 3.1 h
- AUC(0-t) [1, 6]: 18000 ng·h/mL
- Cmax [1, 6]: 2320 ng/mL
- Tmax ([1]; female, plasma, erlotinib 10 mg kg^-1 p.o. alone (-BAS 100), BALB/c mice, read-out: Tmax): 0.5 h
